This is an account of results in patent publication US20260373274A1, “PEPTIDE-LINKED DRUG DELIVERY SYSTEM” (priority 2022, published 2026).

Entries after “also recorded” stand apart in the source; their conditions may differ. Where a SMILES comes first, the peptide text is derived from it.

Data set [1] can be described thus: Serum biochemistry. In kind it is in vivo, female BALB/c mice. The conditions noted are these: i.v. weekly for 3 weeks; DM1 0.75 mg/kg, CIS 10 mg/kg. The source says:
(§1) At the end of a 3-week treatment, mice were euthanized. The organs/tissues were harvested, fixed in 10% neutral buffered formalin for 2 days. Bones were decalcified in a formic acid solution (Surgipath Decalcifier I; Leica Biosystems, Weltzar, Germany). The samples were then embedded in paraffin, sectioned (5 μm), and stained with H&E for examination by an ACVP board certified anatomic pathologist.
(§2) Hematology and biochemistry—Blood samples were collected via cardiac puncture. A complete blood count, including red blood cell, white blood cell, reticulocyte and platelet counts, with an automated differential leukocyte count, was performed using an IDEXX Procyte DX hematology analyzer (iDEXX, Westbrook. ME). Blood smears were prepared, stained with modified Wright's stain, examined in a blinded fashion by a board-certified veterinary clinical pathologist (T.S.), and imaged using a Nikon Eclipse TE2000-U fluorescent microscope equipped with a photometrics CoolSNAP HQ^2 camera (Nikon Corporation, Tokyo, Japan). The blood was also centrifuged (1,500×G) for 15 min to obtain the serum for biochemical analysis using a Beckman Coulter AU680 analyzer (Beckman Coulter, Brea, CA).

Data set [2] is described as follows: Hematology, complete blood count. In kind it is in vivo, female BALB/c mice. The settings on record: i.v. weekly for 3 weeks; DM1/DM1-Bdd 0.75 mg/kg, CIS 10 mg/kg. As for the experimental part: Necropsy—Seven- to 9-week-old female BALB/c mice (n=4/group) were treated weekly with PBS, DM1, DM1-peptide (0.75 mg/kg of drug content), or cisplatin (10 mg/kg) via tail-vein injection (150 μL). At the end of a 3-week treatment, mice were euthanized. The organs/tissues were harvested, fixed in 10% neutral buffered formalin for 2 days. Bones were decalcified in a formic acid solution (Surgipath Decalcifier I; Leica Biosystems, Weltzar, Germany). The samples were then embedded in paraffin, sectioned (5 μm), and stained with H&E for examination by an ACVP board certified anatomic pathologist.
as §2

The test system of data set [3] is major organs (liver, spleen, heart, lungs, and kidneys). In words: Necropsy, histopathology of major organs. The class given is in vivo, female BALB/c mice. The conditions noted are these: i.v. weekly for 3 weeks; DM1/DM1-Bdd 0.75 mg/kg, CIS 10 mg/kg.
Description: as §1

Data set [4] in a line: Fluorescence imaging of Cyanine5.5-labeled peptides (in vivo, ex vivo, urine). On the set-up: species or system Female SHO mice. The conditions noted are these: i.v. An excerpt:
The animals were then euthanized.

In data set [5] the test system is orthotopic human UMUC-3 tumors. In words: Therapeutic efficacy for treating BC, orthotopic UMUC-3/GFP-Luc xenograft. The settings on record: 5 mg/kg weekly. An excerpt:
These animals were immediately euthanized I week after the completion of the treatment schedule.
Slides were then counterstained with Hematoxylin.

For data set [6], the system named is kidney injury molecule-1 (KIM-1) and neutrophil gelatinase-associated lipocalin (NGAL). Put plainly: Nephrotoxicity studies, urinary renal injury biomarkers by ELISA. In kind it is in vivo, BALB/c mice. The conditions noted are these: single i.v. dose; 3 days. The method, then:
The level of the acute renal injury biomarkers, neutrophil gelatinase-associated lipocalin (NGAL) and kidney injury molecule-1 (KIM-1) in the urine samples, were measured using ELISA assays according to the manufacturer's instructions (R&D Systems, Minneapolis, MN). […] All the animals (n=3/group) were euthanized at the end of the treatment and the kidneys were collected and fixed in 10% neutral buffered formalin. The tissues were then processed, embedded in paraffin, sectioned, and stained with H&E. Immunohistochemistry (IHC) for kidney injury (NGAL and KIM-I) was also performed.
For orientation: An ELISA detects its analyte on a solid surface through an enzyme-linked reagent.

In the case of `N.N.[Cl][Pt][Cl]` [CIS, cis-dichlorodiammine platinum(II)], the “muscle injury (CK activity)” value in data set [1] is listed as “induced muscle injury (CK activity)”. Moreover, in data set [2], the “red blood cell, leukocyte, or platelet counts or morphologic features” value was “thrombocytopenia and lymphopenia”. Further, the “histopathology of liver, spleen, heart, lungs, or kidneys” value in data set [3] is “degeneration and necrosis of the proximal renal tubules, lung inflammation, and depletion of both erythrocytes and extramedullary hematopoiesis (EMH) in spleen”.

For `CN1/C(=C/C=C/C=C/C2=[N+](CCCCCC(=O)NCCC(=O)N[C@@H](CCCCN)C(=O)N[C@@H](CC(=O)O)C(=O)NCCC(=O)N[C@@H](CCCCN)C(=O)N[C@@H](CC(=O)O)C(=O)NCCC(=O)N[C@@H](CCCCN)C(=O)N[C@@H](CC(=O)O)C(=O)NCCC(=O)N[C@@H](CCCCN)C(=O)N[C@@H](CC(=O)O)C(N)=O)c3ccc4ccccc4c3C2(C)C)C(C)(C)c2c1ccc1ccccc21` [Cy-BKD] (HELM PEPTIDE1{[CN1/C(=C/C=C/C=C/C2=[N+](CCCCCC(=O)[*:2])c3ccc4ccccc4c3C2(C)C)C(C)(C)c2c1ccc1ccccc21].[bAla].K.D.[bAla].K.D.[bAla].K.D.[bAla].K.D.[am]}$$$$V2.0), the main uptake organ result in data set [4] is listed as “mainly taken up by the liver”.

For `CN1/C(=C/C=C/C=C/C2=[N+](CCCCCC(=O)NCCC(=O)N[C@@H](CCCCN)C(=O)N[C@@H](CCCCN)C(=O)NCCC(=O)N[C@@H](CCCCN)C(=O)N[C@@H](CCCCN)C(=O)NCCC(=O)N[C@@H](CCCCN)C(=O)N[C@@H](CCCCN)C(=O)NCCC(=O)N[C@@H](CCCCN)C(=O)N[C@@H](CCCCN)C(N)=O)c3ccc4ccccc4c3C2(C)C)C(C)(C)c2c1ccc1ccccc21` [Cy-BKK] (HELM PEPTIDE1{[CN1/C(=C/C=C/C=C/C2=[N+](CCCCCC(=O)[*:2])c3ccc4ccccc4c3C2(C)C)C(C)(C)c2c1ccc1ccccc21].[bAla].K.K.[bAla].K.K.[bAla].K.K.[bAla].K.K.[am]}$$$$V2.0), in data set [4], the main uptake organ entry is reported as “mainly taken up by the liver”.

Turning to `COc1cccc2c1C(=O)c1c(O)c3c(c(O)c1C2=O)C[C@@](O)(C(=O)CO)C[C@@H]3O[C@H]1C[C@H](N)[C@H](O)[C@H](C)O1` [DOX, Doxorubicin, reference compound], in data set [5], the body weight result is “all the animals continuously losing weight” and the “life expectancy compared to the PBS control / mortality” value is on record as “shorter life expectancy compared to the PBS control; also recorded: died prior to receiving the final dose; also recorded: caused mortality”.

As to `Nc1ccn([C@@H]2O[C@H](CO)[C@@H](O)C2(F)F)c(=O)n1` [GEM, gemcitabine], the “induction of KIM-1 and/or NGAL, 3 days” value in data set [6] is on record as “continued induction of KIM-1 and/or NGAL”.

For `CO[C@@]12[C@H](COC(N)=O)C3=C(C(=O)C(C)=C(N)C3=O)N1C[C@@H]1N[C@@H]12` [MIT, Mitomycin], in data set [6], the “induction of KIM-1 and/or NGAL, 3 days” value is recorded as “continued induction of KIM-1 and/or NGAL”.

Take “Cyanine5.5 [free Cy, reference compound]”: the main uptake organ entry in data set [4] is “mainly taken up by the liver”.
